We go through 13 molecules from US20260109714A1, “PYRIMIDINE-FUSED RING COMPOUND, AND PREPARATION METHOD THEREFOR AND USE THEREOF” (GENFLEET THERAPEUTICS (SHANGHAI) INC., priority 2022, published 2026).

The test system of one experiment is AGS p-ERK. Briefly: Cell assay for p-ERK (HTRF, Advance ERK phospho-T202/Y204 kit). Type of experiment: cell-based, human. Conditions: AGS cells (KRAS G12D), 3 hrs with compound, inhibition of p-ERK level. The protocol:
AGS was purchased from ATCC, Article No.: CRL-1739; F12K was purchased from Gibco, Article No.: 21127-022; FBS was purchased from Gibco, Article No.: 10099-141C; the trypsin (containing EDTA) was purchased from Gibco, Article No.: 25200-072; DMSO was purchased from VWRAMRESCO, Article No.: 0231-500ML; the 96-well cell culture plate was purchased from Corning, Article No.: 3599; the white-bottom opaque 96-well plate was purchased from Cisbio, Article No.: 66PL96025; Advance ERK phospho-T202/Y204 kit was purchased from Cisbio, Article No.: 64AERPEH; the cell counter was purchased from CHEMOMETEC, model: NC-200; the microplate reader was purchased from PerkinElmer, model: Envison.
AGS, an endogenous human gastric adenocarcinoma cell line with KRAS^G12D mutation, was cultured in F12K+10% FBS medium. On the first day of the experiment, cells in logarithmic growth period were digested with trypsin (containing EDTA), collected and counted, and about 20,000 cells/well were inoculated in a 96-well cell culture plate and cultured overnight in an incubator with 5% CO2. 1000× compound stock solutions with gradient concentrations of 3.16 times were prepared with DMSO, and 200-fold diluted to 5× compound stock solutions with the above culture medium. The 5× compound stock solution was added to each cell culture well on the second day after cell inoculation, to give a final concentration of 1× and DMSO content of 0.1%. DMSO was used as experimental control. After adding the compound, the cells were continuously cultured for 3 hrs. Then, the culture medium in the well was removed, and 50 μl/well of cell lysis buffer (from Advanced ERK phospho-T202/Y204 kit, the same hereinafter) was added, and mixed uniformly. The cells were cultured for 30 min. Then 16 μl of the mixture was transferred to a white-bottom opaque 96-well plate, and 16 μl of the cell lysis buffer was added to an additional well and used as a blank. After that, 4 μl of p-ERK HTRF antibody mixed solution (from Advanced ERK Phos Pho-T202/Y204 Kit) was added to each well. After incubation for 4 hrs, the fluorescence value (RLU) of HTRF was read on a microplate reader. The inhibition rate of the compound on p-ERK level was calculated by the formula IR (%)=(RLU of control−RLU of compound)/(RLU of control−RLU of blank)×100%. The compound concentration and the corresponding inhibition rate on p-ERK level in the cells were fitted by using Prism 8 four-parameter method, and the IC50 value was calculated.
(In general: In TR-FRET formats the signal depends on donor and acceptor labels being close together.)

Experiment [1] deals with AsPC-1 human pancreatic cancer cell with KRAS G12D mutation. Briefly: Cell proliferation inhibition experiment, 3D CellTiter-Glo, AsPC-1. Conditions: AsPC-1 cells, 3D spheroid, 5 days. Type of experiment: cell-based. An excerpt:
(§1) AsPC-1 was purchased from ATCC, Article No.: CRL-1682; AGS was purchased from ATCC, Article No.: CRL-1739; RPMI1640 was purchased from Gibco, Article No.: 11875-093 2235123; F12K was purchased from Gibco, Article No.: 21127-022; FBS was purchased from Gibco, Article No.: 10099-141C; the trypsin (containing EDTA) was purchased from Gibco, Article No.: 25200-072; CellTiter Glo-3D was purchased from Progema, Article No.: G9683; the 384-well spheroid plate was purchased from Corning, Article No.: 3830; the white-bottom opaque 384-well plate was purchased from Corning, Article No.: 3570; the cell counter was purchased from CHEMOMETEC, model: NC-200; the microplate reader was purchased from PerkinElmer, model: Envison;
(§2) AsPC-1, an endogenous human pancreatic cancer cell AsPC-1 with KRAS^G12D mutation, was cultured in RPMI-1640 medium containing 10% FBS. AGS, a human gastric cancer cell line with KRAS^G12D mutation, was cultured in F-12K medium containing 10% FBS. Cells in logarithmic growth period were digested with trypsin (containing EDTA), collected and counted. 800 AsPC-1 cells/well or 400 […] were inoculated in a 384-well spheroid plate, and cultured overnight in an incubator with 5% CO2 to establish a 3D cell model. 1000× compound stock solutions with gradient concentrations of 3.16 times were prepared with DMSO, and 100-fold diluted to 10× compound stock solutions with the culture medium. The 10× compound stock solution was added to each cell culture well on the second day after cell inoculation, to give a final concentration of 1× and DMSO content of 0.1%. DMSO was used as the control, and the culture medium was used as the blank. After the compound was added, the cells were cultured for 5 days. 30 μl CellTiter-Glo working solution was added to each well, and mixed uniformly. The cells were incubated for 30 min, and allowed to stand at room temperature for 30 min. 40 μl of the mixture was transferred to a white-bottom opaque 384-well plate, and the luminescence was read on a microplate reader. The inhibition rate on cell proliferation was calculated by a formula: IR (%)=(RLU of control−RLU of compound)/(RLU of control−RLU of blank)×100%. The gradient concentrations of the compound and the corresponding inhibition rates were fitted by using XLFit four-parameter method, and the IC50 value was calculated. […] The results of some exemplary compounds are shown in Table 2 below (—means not tested).

The subject of experiment [2] is AGS human gastric cancer cell line with KRAS G12D mutation. The experiment is described as follows: Cell proliferation inhibition experiment, 3D CellTiter-Glo, AGS. The experiment is classed as cell-based. Conditions: AGS cells, 3D spheroid, 5 days.
From the text: as §1, §2
(In general: ATP-based viability assays read luminescence as a measure of living cells.)

A word on the IC50: it is the point on the concentration scale where inhibition reaches its midpoint.

As for `C#Cc1cccc2cc(N)c(F)c(-c3nc4c5c(nc(OCC6(CN7CCOCC7)CC6)nc5c3F)N3C[C@H]5CC[C@H](N5)[C@H]3[C@H](C)O4)c12` [Z707, 5-ethynyl-3-fluoro-4-((5S,5aS,6S,9R)-1-fluoro-5-methyl-12-((1-(morpholinemethyl)cyclopropyl)methoxy)-5a,6,7,8,9,10-hexahydro-5H-4-oxa-3,10a,11,13,14-pentaaza-6,9-methanonaphtho[1,8-ab]hepten-2-yl)naphthalen-2-amine], the IC50 came out at 0.95 nM in the experiment with AGS p-ERK, 5.24 nM in experiment [1] and 7.44 nM in experiment [2].

As for `C#Cc1c(F)ccc2cccc(-c3nc4c5c(nc(OC[C@]67CCCN6CC=C7C)nc5c3F)N3C[C@H]5CC[C@H](N5)[C@H]3[C@H](C)O4)c12` [Z749], the concentration for half-maximal inhibition (IC50) in the experiment on AGS p-ERK (Homo sapiens) was 1.91 nM; in experiment [1] (Homo sapiens, ASPC1, 120 h) it was 11.5 nM; in experiment [2] (Homo sapiens, 120 h), 7.13 nM.

In the case of `[2H]C([2H])([2H])[C@@H]1Oc2nc(-c3cc(N)cc(Cl)c3C(F)(F)F)c(F)c3nc(OC[C@]45CCCN4CCC5=C(F)F)nc(c23)N2C[C@H]3CC[C@H](N3)[C@@H]12` [Z1072, 3-chloro-5-((5S,5aS,6S,9R)-12-(((R)-1-(difluoromethylene)tetrahydro-1H-pyrrolizin-7a(5H)-yl)methoxy)-1-fluoro-5-(methyl-d3)-5a,6,7,8,9,10-hexahydro-5H-4-oxo-3,10a,11,13,14-pentaaza-6,9-methanonaphtho[1,8-ab]hepten-2-yl)-4-(trifluoromethyl) aniline], the half-inhibitory concentration (IC50) worked out at 2.26 nM in experiment [1] (Homo sapiens, ASPC1, 120 h) and 0.5 nM in experiment [2] (Homo sapiens, 120 h).

As for `[2H]C([2H])([2H])[C@@H]1Oc2nc(-c3cc(N)cc4cccc(C#C)c34)c(F)c3nc(OCC4(CN5CC[C@@H](F)C5)CC4)nc(c23)N2C[C@H]3CC[C@H](N3)[C@@H]12` [Z964, 5-ethynyl-4-((5S,5aS,6S,9R)-1-fluoro-12-((1-(((R)-3-fluoropyrrolidin-1-yl)methyl)cyclopropyl)methoxy)-5-(methyl-d3)-5a,6,7,8,9,10-hexahydro-5H-4-oxa-3,10a,11,13,14-pentaaza-6,9-methanonaphtho[1,8-ab]hepten-2-yl)naphthalen-2-amine], the IC50 in the experiment on AGS p-ERK (Homo sapiens) worked out at 0.38 nM; in experiment [1] (Homo sapiens, ASPC1, 120 h), 1.58 nM; in experiment [2] (Homo sapiens, 120 h), 0.51 nM.

For `C#Cc1cccc2cc(N)cc(-c3nc4c5c(nc(OC[C@@]67CCCN6CCC7=C(F)F)nc5c3F)N3C[C@H]5CC[C@H](N5)[C@H]3[C@H](C)O4)c12` (single isomer, unassigned) [Z960], the concentration for half-maximal inhibition (IC50) in the experiment with AGS p-ERK (Homo sapiens) amounted to 0.25 nM; in experiment [1] (Homo sapiens, ASPC1, 120 h), 1.58 nM; in experiment [2] (Homo sapiens, 120 h), 3.96 nM.

Regarding `C#Cc1cccc2cc(N)cc(-c3nc4c5c(nc(OCC(C)C(O)C(F)F)nc5c3F)N3C[C@H]5CC[C@H](N5)[C@H]3[C@H](C)O4)c12` (stereo partly drawn) [Z742], the IC50 is 52 nM with AGS p-ERK (Homo sapiens); 312 nM in experiment [1] (Homo sapiens, ASPC1, 120 h); 156 nM in experiment [2] (Homo sapiens, 120 h).

As for `C#Cc1c(F)ccc2cccc(-c3nc4c5c(nc(OC[C@@]67CCCN6CCC7=C)nc5c3F)N3C[C@H]5CC[C@H](N5)[C@H]3[C@H](C)O4)c12` [Z638, (5S,5aS,6S,9R)-2-(8-ethynyl-7-fluoronaphthalen-1-yl)-1-fluoro-5-methyl-12-(((S)-1-methylenetetrahydro-1H-pyrrolizin-7a(5H)-yl)methoxy)-5a,6,7,8,9,10-hexahydro-5H-4-oxa-3,10a,11,13,14-pentaaza-6,9-methanonaphtho[1,8-ab]heptene], the concentration for half-maximal inhibition (IC50) worked out at 7.79 nM with AGS p-ERK, 32 nM in experiment [1] and 19.7 nM in experiment [2].

Consider `C#Cc1cccc2cc(N)cc(-c3nc4c5c(nc(OCC67CCCN6CC(=C(F)F)C7)nc5c3F)N3C[C@H]5CC[C@H](N5)[C@H]3[C@H](C)O4)c12` (stereo partly drawn) [Z747], for which the IC50 in the experiment with AGS p-ERK (Homo sapiens) came out at 0.37 nM.

In the case of `C#Cc1c(F)ccc2cccc(-c3cc4nc(OC[C@]56CCCN5CCC6=C)nc5c4c(n3)O[C@@H](C)[C@@H]3[C@@H]4CC[C@H](CN53)N4)c12` [Z958, (5S,5aS,6S,9R)-2-(8-ethynyl-7-fluoronaphthalen-1-yl)-5-methyl-12-(((R)-1-methylenetetrahydro-1H-pyrrolizin-7a(5H)-yl)methoxy)-5a,6,7,8,9,10-hexahydro-5H-4-oxy-3,10a,11,13,14-pentaaza-6,9-methanonaphtho[1,8-ab]heptene], the IC50 in the experiment with AGS p-ERK (Homo sapiens) was 29.2 nM; in experiment [1] (Homo sapiens, ASPC1, 120 h), 69.5 nM; in experiment [2] (Homo sapiens, 120 h) it was 45.6 nM.

For `C#Cc1c(F)ccc2cccc(-c3nc4c5c(nc(OC[C@]67CCCN6CCC7=C)nc5c3F)N3C[C@H]5CC[C@H](N5)[C@H]3[C@@H](C(F)F)O4)c12` [Z736, (5S,5aS,6S,9R)-5-(difluoromethyl)-2-(8-ethynyl-7-fluoronaphthalen-1-yl)-1-fluoro-12-(((R)-1-methylenetetrahydro-1H-pyrrolizin-7a(5H)-yl)methoxy)-5a,6,7,8,9,10-hexahydro-5H-4-oxa-3,10a,11,13,14-pentaaza-6,9-methanonaphtho[1,8-ab]heptene], the concentration for half-maximal inhibition (IC50) in experiment [1] (Homo sapiens, ASPC1, 120 h) worked out at 254 nM; in experiment [2] (Homo sapiens, 120 h), 389 nM.

`C#Cc1c(F)ccc2cccc(-c3nc4c5c(nc(OC[C@]67CCCN6CCC7=C)nc5c3F)N3C[C@H]5CC[C@H](N5)[C@H]3C(CF)O4)c12` (stereo partly drawn) [Z746, (5aS,6S,9R)-2-(8-ethynyl-7-fluoronaphthalen-1-yl)-1-fluoro-5-(fluoromethyl)-12-(((R)-1-methylenetetrahydro-1H-pyrrolizin-7a(5H)-yl)methoxy)-5a,6,7,8,9,10-hexahydro-5H-4-oxa-3,10a,11,13,14-pentaaza-6,9-methanonaphtho[1,8-ab]heptene]: the IC50 with AGS p-ERK (Homo sapiens) came out at 17.1 nM.

`C=C1CN2CCCC2(COc2nc3c4c(nc(-c5cccc6cccc(Cl)c56)c(F)c4n2)OC(CC)[C@@H]2[C@@H]4CC[C@H](CN32)N4)C1` (stereo partly drawn) [Z596, (5S,5aS,6S,9R)-2-(8-chloronaphthalen-1-yl)-5-ethyl-1-fluoro-12-((2-methylenetetrahydro-1H-pyrrolizin-7a(5H)-yl)methoxy)-5a,6,7,8,9,10-hexahydro-5H-4-oxy-3,10a,11,13,14-pentaaza-6,9-methanonaphtho[1,8-ab]heptene]: the half-inhibitory concentration (IC50) was found to be 411 nM in experiment [1] (Homo sapiens, ASPC1, 120 h) and 268 nM in experiment [2] (Homo sapiens, 120 h).

“6-((5S,5aS,6S,9R)-12-(((R)-1-(difluoromethylene)tetrahydro-1H-pyrrolizin-7a(5H)-yl)methoxy)-1-fluoro-5-(methyl-d3)-5a,6,7,8,9,10-hexahydro-5H-4-oxa-3,10a,11,13,14-pentaaza-6,9-methanonaphtho[1,8-ab]hepten-2-yl)-4-methyl-5-(trifluoromethyl)pyridine-2-amine [Z1295]”: the IC50 in the experiment on AGS p-ERK turned out to be 13.9 nM.
